{"source": "patent US11697679B2", "about": "“Modified collagen protein and application of same” (UNIVERSITY OF TSUKUBA, priority 2017, dated 2023)", "test_system": "GFP-inserted Type V collagen α1 expression MC3T3-E1", "test": "Fibrogenesis inhibitory experiment in stress culture in multi-well plates", "format": "cell-based, mouse", "conditions": "1.0 mg/ml added when switched to stress culture; observed after 28 days; compared to wells without Pirfenidone; FIG. 18", "protocol": "Normal cultivation was performed using the following materials. Cultivations using MC3T3-E1 and Balb3T3, respectively, were performed in αMEM medium containing 10% serum, and in MEM medium containing 10% serum, at 37° C. and 5% CO2. • Serum: Fetal bovine serum (Gibco) • Medium: Minimum Essential Medium Alpha (Gibco) • Medium: Minimum Essential Medium (Gibco) • Dish for culturing cells: Cell culture dish 60×15 mm (Falcon)\nThe following flasks were filled with medium for shaking culture. • Cell-culture flasks: 25 mL (Falcon) of Cell culture flask (12.5 cm^2 slant neck/plug seal)\nThe shaking culture was performed using a mini-shaker SHM-2002 (LMS) at a shaking angle of 7° and a rotational speed of 20 rpm using a sunflower shaking method.\nOLYMPUS LX73 was used for fluorescent microscopy. The following filter sets were used for fluorescence imaging. • Green Fluorescence: U-EGFP (OLYMPUS), Ex: 470/20, Em: 518/45 • Red fluorescence: BrightLine®SpGold-B-000-ZERO (Semrock), Ex: 534/20, Em: 572/28 • Near Infrared Fluorescence: BrightLine®Cy5.5-B-000 (Semrock), Ex: 655/40, Em: 716/40\nThe GFP-inserted Type V collagen α1 expression MC3T3-E1 was cultured in multi-well plates and when switched to stress cultures capable of inducing collagen secretion, 1.0 mg/ml of Pirfenidone was added and compared to wells without such addition of Pirfenidone. […]"}
{"smiles": "Cc1ccc(=O)n(-c2ccccc2)c1", "note": "[Pirfenidone]", "values": [{"measurement": "extracellular collagen fiber formation (green fluorescent fiber structures)", "result": "inhibited"}]}
